Patent publication US8471005B2 (Cephalon, Inc., priority 2008, dated 2013)
Where two headings read alike, the source gives them in different places.

How the values were obtained:
[1] = target: T1, ALK (Homo sapiens, UniProt Q9UM73); assay: ALK Kinase Assay (ELISA/TRF, PLC-γ substrate); assay type: biochemical; conditions: read-out: ALK Potency
T1 construct: host or cells: baculovirus expression system
Method: Briefly, each 96-well plate was coated with […] of 10 μg/mL substrate (phospholipase C-γ) in Tris-buffered saline (TBS). […] The reaction was initiated by adding enzyme (30 ng/ml ALK) and was allowed to proceed at 37° C. for 15 minutes. Detection of the phosphorylated product was performed by adding 100 μl/well of Eu—N1 labeled PT66 antibody (Perkin Elmer # AD0041).
Data analysis was performed using ActivityBase (IDBS, Guilford, UK). IC50 values were calculated by plotting percent inhibition versus log10 of the concentration of compound and fitting to the nonlinear regression sigmoidal dose-response (variable slope) equation in XLFit (IDBS, Guilford, UK).

[2] = target: T2, JAK2 (Homo sapiens, UniProt O60674); assay: Recombinant Human JAK2 Kinase Assay (TRF); assay type: biochemical; conditions: read-out: JAK2 Potency
T2 construct: host or cells: baculovirus expression system
Method: Compounds were tested for their ability to inhibit the kinase activity of baculovirus-expressed JAK2 using the TRF detection system. […] The plates were coated first with 100 μL/well of 10 μg/mL Neutravidin (Pierce #31000, Rockford, Ill.) in TBS at 37° C. for 2 hours, followed by 100 μL/well of 1 μg/mL 15-mer peptide substrate (biotinyl-amino-hexanoyl-[…]-amide, Infinity Biotech Research and Resource, Aston, Pa.) at 37° C. for another hour. The JAK2 assay mixture (total volume=100 μL/well) consisting of 20 mM HEPES (pH 7.2), 0.2 μM ATP, 1 mM MnCl2, 0.1% BSA, and test compound (diluted in DMSO; 2.5% DMSO final in assay) was then added to the assay plate. Enzyme (15 ng/ml JAK2) was added and the reaction was allowed to proceed at room temperature for 20 minutes. Detection of the phosphorylated product was performed by adding 100 μL/well of Eu—N1 labeled PY100 antibody (PerkinElmer Life Sciences #AD0041, Boston, Mass.).

[3] = ALK kinase inhibition, 1 μM ATP
[4] = JAK2 kinase inhibition, 0.2 μM ATP

T1 sequence (Q9UM73 19-1620): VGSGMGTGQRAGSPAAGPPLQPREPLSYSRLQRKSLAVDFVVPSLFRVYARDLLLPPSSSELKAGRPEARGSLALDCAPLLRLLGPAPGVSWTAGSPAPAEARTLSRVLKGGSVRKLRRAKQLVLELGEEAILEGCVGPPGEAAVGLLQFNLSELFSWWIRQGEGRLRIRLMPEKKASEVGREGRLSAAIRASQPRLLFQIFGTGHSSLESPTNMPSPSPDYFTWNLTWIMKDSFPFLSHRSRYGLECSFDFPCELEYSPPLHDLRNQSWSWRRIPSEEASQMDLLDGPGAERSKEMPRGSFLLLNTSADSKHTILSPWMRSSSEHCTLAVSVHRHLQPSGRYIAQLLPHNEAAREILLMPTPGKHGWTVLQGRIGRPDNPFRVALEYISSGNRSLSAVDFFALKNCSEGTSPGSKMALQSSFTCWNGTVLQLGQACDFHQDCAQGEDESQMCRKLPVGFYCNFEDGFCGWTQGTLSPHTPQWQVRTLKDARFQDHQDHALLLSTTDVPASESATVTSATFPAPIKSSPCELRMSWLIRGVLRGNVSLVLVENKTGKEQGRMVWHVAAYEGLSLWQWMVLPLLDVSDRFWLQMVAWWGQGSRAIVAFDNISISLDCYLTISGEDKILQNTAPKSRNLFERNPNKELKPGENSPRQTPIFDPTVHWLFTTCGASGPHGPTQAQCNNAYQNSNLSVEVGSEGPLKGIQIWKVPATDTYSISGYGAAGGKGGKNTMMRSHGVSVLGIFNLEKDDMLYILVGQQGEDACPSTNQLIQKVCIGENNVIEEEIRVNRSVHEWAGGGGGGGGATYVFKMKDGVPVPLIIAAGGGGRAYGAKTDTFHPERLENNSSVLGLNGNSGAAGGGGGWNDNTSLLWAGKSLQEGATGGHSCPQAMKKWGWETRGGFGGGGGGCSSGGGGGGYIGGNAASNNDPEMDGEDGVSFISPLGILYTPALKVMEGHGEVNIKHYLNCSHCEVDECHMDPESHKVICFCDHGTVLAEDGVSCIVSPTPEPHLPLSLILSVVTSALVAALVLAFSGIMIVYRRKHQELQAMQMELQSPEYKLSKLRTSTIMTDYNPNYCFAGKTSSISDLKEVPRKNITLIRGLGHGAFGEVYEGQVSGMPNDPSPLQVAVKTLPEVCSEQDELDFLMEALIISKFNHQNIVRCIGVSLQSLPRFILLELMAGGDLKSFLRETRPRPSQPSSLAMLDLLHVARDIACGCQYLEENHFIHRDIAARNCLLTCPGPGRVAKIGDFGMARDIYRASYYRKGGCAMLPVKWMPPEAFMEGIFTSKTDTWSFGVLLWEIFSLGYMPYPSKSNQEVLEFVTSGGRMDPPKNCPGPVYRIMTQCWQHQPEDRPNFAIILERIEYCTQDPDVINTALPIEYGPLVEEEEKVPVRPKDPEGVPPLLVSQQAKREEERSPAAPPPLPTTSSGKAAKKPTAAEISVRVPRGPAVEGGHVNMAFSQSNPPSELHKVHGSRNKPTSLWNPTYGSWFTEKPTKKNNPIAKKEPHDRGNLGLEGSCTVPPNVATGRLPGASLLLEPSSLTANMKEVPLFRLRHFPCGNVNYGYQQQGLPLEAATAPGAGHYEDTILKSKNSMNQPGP
T2 sequence (O60674 whole entry): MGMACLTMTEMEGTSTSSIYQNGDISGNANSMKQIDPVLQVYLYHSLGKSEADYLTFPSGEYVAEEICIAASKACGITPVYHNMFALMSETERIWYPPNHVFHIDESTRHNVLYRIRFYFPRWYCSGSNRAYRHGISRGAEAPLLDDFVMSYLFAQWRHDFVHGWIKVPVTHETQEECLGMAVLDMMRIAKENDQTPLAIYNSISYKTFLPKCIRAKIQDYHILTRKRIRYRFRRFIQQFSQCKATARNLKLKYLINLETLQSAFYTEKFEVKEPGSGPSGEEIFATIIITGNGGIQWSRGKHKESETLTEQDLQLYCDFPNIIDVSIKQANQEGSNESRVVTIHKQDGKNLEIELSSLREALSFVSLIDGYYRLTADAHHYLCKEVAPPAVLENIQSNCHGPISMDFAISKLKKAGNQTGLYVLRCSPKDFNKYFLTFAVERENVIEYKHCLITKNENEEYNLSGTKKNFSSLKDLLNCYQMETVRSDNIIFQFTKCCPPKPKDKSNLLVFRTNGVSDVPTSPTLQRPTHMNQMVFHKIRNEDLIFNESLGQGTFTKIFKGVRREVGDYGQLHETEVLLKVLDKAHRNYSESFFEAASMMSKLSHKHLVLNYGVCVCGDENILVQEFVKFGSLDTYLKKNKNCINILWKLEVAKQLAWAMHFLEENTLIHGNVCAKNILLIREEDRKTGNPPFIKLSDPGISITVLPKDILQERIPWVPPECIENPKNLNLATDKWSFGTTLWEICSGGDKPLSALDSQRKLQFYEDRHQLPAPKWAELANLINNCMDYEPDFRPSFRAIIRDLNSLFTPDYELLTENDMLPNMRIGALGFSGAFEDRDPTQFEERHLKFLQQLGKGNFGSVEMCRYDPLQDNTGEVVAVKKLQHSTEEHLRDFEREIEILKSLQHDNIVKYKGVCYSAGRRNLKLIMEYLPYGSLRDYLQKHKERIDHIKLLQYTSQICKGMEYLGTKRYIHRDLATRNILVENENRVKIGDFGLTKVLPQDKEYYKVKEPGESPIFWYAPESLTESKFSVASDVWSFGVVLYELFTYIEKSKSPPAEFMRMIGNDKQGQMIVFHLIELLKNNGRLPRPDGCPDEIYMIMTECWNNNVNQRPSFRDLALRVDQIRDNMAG

SMILES | IC50 ([1]; ALK Kinase Inhibition) [nM] | IC50 ([2]; JAK2 Kinase Inhibition) [nM] | IC50 [1, 3] [nM] | IC50 [2, 4] [nM]
COCCN1CCc2ccc(Nc3ncc4ccc(-c5ccc(S(C)(=O)=O)cc5)n4n3)cc2CC1 [Example 89, [7-(4-Methanesulfonyl-phenyl)-pyrrolo[2,1-f][1,2,4]triazin-2-yl]-[3-(2-methoxy-ethyl)-2,3,4,5-tetrahydro-1H-benzo[d]azepin-7-yl]-amine] | 100 to 1000 | < 100 | – | –
CN1CCN(c2ccc(Nc3ncc4ccc(C5CCCCC5)n4n3)cc2)CC1 [Example 123, (7-Cyclohexyl-pyrrolo[2,1-f][1,2,4]triazin-2-yl)-[4-(4-methyl-piperazin-1-yl)-phenyl]-amine] | 100 to 1000 | < 100 | – | –
COc1cc(N2CCC(N3CCN(C(=O)OCc4ccccc4)CC3)CC2)ccc1Nc1ncc2ccc(-c3ccccc3OC)n2n1 [Example 531, 4-(1-{3-Methoxy-4-[7-(2-methoxy-phenyl)-pyrrolo[2,1-f][1,2,4]triazin-2-ylamino]-phenyl}-piperidin-4-yl)-piperazine-1-carboxylic acid benzyl ester] | – | – | < 100 | 100 to 1000
COc1cc(N2CCC(N3CC[C@H](O)C3)CC2)ccc1Nc1ncc2ccc(-c3ccccc3OC)n2n1 [Example 483, (S)-1-(1-{3-Methoxy-4-[7-(2-methoxy-phenyl)-pyrrolo[2,1-f][1,2,4]triazin-2-ylamino]-phenyl}-piperidin-4-yl)-pyrrolidin-3-ol] | – | – | < 100 | 100 to 1000
CN1CCC(c2ccc(Nc3ncc4ccc(-c5cccc(N(C)C)c5)n4n3)cc2)CC1 [Example 662, [7-(3-Dimethylamino-phenyl)-pyrrolo[2,1-f][1,2,4]triazin-2-yl]-[4-(1-methyl-piperidin-4-yl)-phenyl]-amine] | – | – | < 100 | < 100
COc1ccc(-c2ccc3cnc(Nc4ccc(C5CCN(CCO)CC5)cc4)nn23)cn1 [Example 671, 2-(4-{4-[7-(6-Methoxy-pyridin-3-yl)-pyrrolo[2,1-f][1,2,4]triazin-2-ylamino]-phenyl}-piperidin-1-yl)-ethanol] | – | – | 100 to 1000 | < 100
OCCN1CCN(c2cccc(Nc3ncc4ccc(-c5cccc(Cl)c5)n4n3)c2)CC1 [Example 179, 2-(4-{3-[7-(3-Chloro-phenyl)-pyrrolo[2,1-f][1,2,4]triazin-2-ylamino]-phenyl}-piperazin-1-yl)-ethanol] | < 100 | < 100 | – | –
COCCN1CCc2ccc(Nc3ncc4ccc(-c5ccccc5)n4n3)cc2CC1 [Example 9, [3-(2-Methoxy-ethyl)-2,3,4,5-tetrahydro-1H-benzo[d]azepin-7-yl]-(7-phenyl-pyrrolo[2,1-f][1,2,4]triazin-2-yl)-amine] | < 100 | < 100 | – | –
COc1ccc(Cl)cc1-c1ccc2cnc(Nc3cccc(N4CCN(C[C@H](C)O)CC4)c3)nn12 [Example 211, (S)-1-(4-{3-[7-(5-Chloro-2-methoxy-phenyl)-pyrrolo[2,1-f][1,2,4]triazin-2-ylamino]-phenyl}-piperazin-1-yl)-propan-2-ol] | < 100 | < 100 | – | –
COc1ccc(Cl)cc1-c1ccc2cnc(Nc3cccc(C(N)=O)c3)nn12 [Example 166, 3-[7-(5-Chloro-2-methoxy-phenyl)-pyrrolo[2,1-f][1,2,4]triazin-2-ylamino]-benzamide] | 1000 to 10000 | < 100 | – | –
COc1ccc(-c2ccc3cnc(Nc4ccc(C5(C#N)CCN(CC(N)=O)CC5)cc4)nn23)cn1 [Example 1545, 2-(4-Cyano-4-{4-[7-(6-methoxy-pyridin-3-yl)-pyrrolo[2,1-f][1,2,4]triazin-2-ylamino]-phenyl}-piperidin-1-yl)-acetamide] | 100 to 1000 | < 100 | – | –
COc1ccccc1-c1ccn2nc(Nc3ccc4c(c3)CN(C)CC4)ncc12 [Example 722, [5-(2-Methoxy-phenyl)-pyrrolo[2,1-f][1,2,4]triazin-2-yl]-(2-methyl-1,2,3,4-tetrahydro-isoquinolin-7-yl)-amine] | – | – | > 10000 | 1000 to 10000

Further lines, results first:

IC50 ([1]; ALK Kinase Inhibition) [nM] | IC50 ([2]; JAK2 Kinase Inhibition) [nM] | IC50 [1, 3] [nM] | IC50 [2, 4] [nM] | SMILES
– | – | 1000 to 10000 | < 100 | CN(c1ccccc1-c1ccc2cnc(Nc3ccc4cnn(CCN5CCOCC5)c4c3)nn12)S(C)(=O)=O [Example 1334, N-Methyl-N-(2-{2-[1-(2-morpholin-4-yl-ethyl)-1H-indazol-6-ylamino]-pyrrolo[2,1-f][1,2,4]triazin-7-yl}-phenyl)-methanesulfonamide]
– | – | < 100 | 1000 to 10000 | COC[C@H](O)CN1CCN(Cc2ccc(Nc3ncc4ccc(-c5ccccc5N(C)S(C)(=O)=O)n4n3)c(OC)c2)CC1 [Example 1225, N-[2-(2-{4-[4-((R)-2-Hydroxy-3-methoxy-propyl)-piperazin-1-ylmethyl]-2-methoxy-phenylamino}-pyrrolo[2,1-f][1,2,4]triazin-7-yl)-phenyl]-N-methyl-methanesulfonamide]
100 to 1000 | < 100 | – | – | CC(=O)Nc1cccc(Nc2ncc3ccc(-c4cccc(S(=O)(=O)NC(C)(C)C)c4)n3n2)c1 [Example 1368, N-{3-[7-(3-tert-Butylsulfamoyl-phenyl)-pyrrolo[2,1-f][1,2,4]triazin-2-ylamino]-phenyl}-acetamide]
100 to 1000 | < 100 | – | – | CS(=O)(=O)c1cccc(-c2ccc3cnc(Nc4ccc(C5CCN(CC(N)=O)CC5)cc4)nn23)c1 [Example 1434, 2-(4-{4-[7-(3-Methanesulfonyl-phenyl)-pyrrolo[2,1-f][1,2,4]triazin-2-ylamino]-phenyl}-piperidin-1-yl)-acetamide]
– | – | 100 to 1000 | < 100 | CN1CCN(c2ccc(Nc3ncc4ccc(-c5ccc(CNCCS(C)(=O)=O)cc5)n4n3)cc2)CC1 [Example 1208, (7-{4-[(2-Methanesulfonyl-ethylamino)-methyl]-phenyl}-pyrrolo[2,1-f][1,2,4]triazin-2-yl)-[4-(4-methyl-piperazin-1-yl)-phenyl]-amine]
– | – | < 100 | < 100 | COc1cc([C@@H]2CCN(CCF)C[C@@H]2O)ccc1Nc1ncc2ccc(-c3ccccc3OC)n2n1 (racemic) [Example 838, (±)-(3R,4S)-1-(2-Fluoro-ethyl)-4-{3-methoxy-4-[7-(2-methoxy-phenyl)-pyrrolo[2,1-f][1,2,4]triazin-2-ylamino]-phenyl}-piperidin-3-ol]
– | – | 100 to 1000 | < 100 | Cn1cnc2ccc(Nc3ncc4ccc(-c5cccc(S(=O)(=O)CC6CC6)c5)n4n3)cc21 [Example 1320, [7-(3-Cyclopropylmethanesulfonyl-phenyl)-pyrrolo[2,1-f][1,2,4]triazin-2-yl]-(3-methyl-3H-benzimidazol-5-yl)-amine]
– | – | 100 to 1000 | < 100 | CS(=O)(=O)c1cccc(-c2ccc3cnc(Nc4ccc(C5CCNCC5O)cc4)nn23)c1 (stereo not shown) [Example 1018, 4-{4-[7-(3-methanesulfonyl-phenyl)-pyrrolo[2,1-f][1,2,4]triazin-2-ylamino]-phenyl}-piperidine-3-ol]
– | – | < 100 | < 100 | COc1ccccc1-c1ccc2cnc(Nc3ccc(C4CCN(C)CC4)c(C)c3)nn12 [Example 942, [7-(2-Methoxy-phenyl)-pyrrolo[2,1-f][1,2,4]triazin-2-yl]-[3-methyl-4-(1-methyl-piperidin-4-yl)-phenyl]-amine]
– | – | 100 to 1000 | < 100 | CN1CCN(c2ccc(Nc3ncc4ccc(-c5ccccc5OCC(=O)O)n4n3)cc2)CC1 [Example 1182, (2-{2-[4-(4-Methyl-piperazin-1-yl)-phenylamino]-pyrrolo[2,1-f][1,2,4]triazin-7-yl}-phenoxy)-acetic acid]
– | – | < 100 | 100 to 1000 | COc1cc(CN2CCN(C)CC2)ccc1Nc1ncc2ccc(-c3ccccc3OC)n2n1 [Example 1252, [2-Methoxy-4-(4-methyl-piperazin-1-ylmethyl)-phenyl]-[7-(2-methoxy-phenyl)-pyrrolo[2,1-f][1,2,4]triazin-2-yl]-amine]
< 100 | < 100 | – | – | CN1CCN(c2ccc(Nc3ncc4ccc(-c5ccc(CO)cc5)n4n3)cc2)CC1 [Example 1497, (4-{2-[4-(4-Methyl-piperazin-1-yl)-phenylamino]-pyrrolo[2,1-f][1,2,4]triazin-7-yl}-phenyl)-methanol]
1000 to 10000 | < 100 | – | – | Cn1cc(-c2ccc3cnc(Nc4cccc(NS(C)(=O)=O)c4)nn23)cn1 [Example 1389, N-{3-[7-(1-Methyl-1H-pyrazol-4-yl)-pyrrolo[2,1-f][1,2,4]triazin-2-ylamino]-phenyl}-methanesulfonamide]
– | – | 1000 to 10000 | 100 to 1000 | CN1CCN(c2ccc(Nc3ncc4cc(-c5ccccc5OCC#N)cn4n3)cc2)CC1 [Example 1155, (2-{2-[4-(4-Methyl-piperazin-1-yl)-phenylamino]-pyrrolo[2,1-f][1,2,4]triazin-6-yl}-phenoxy)-acetonitrile]
